From patent publication US9550752B2, “Triazolinthione derivatives” (priority 2013, dated 2017)
Marks after values point to notes of the source that are not given here.

Details: method [a]: pH 2.7, 0.1% formic acid in water/acetonitrile; Table 1, formula (I)
For OC(Cc1cc(Cl)nc(Cl)c1)(Cn1ncnc1S)C1(Cl)CC1 (centres unmarked) [Example I-8], the LogP was 3.10^[a]. In the case of OC(Cc1ccc2ccccc2n1)(Cn1ncnc1S)C1(Cl)CC1 (centres unmarked) [Example I-7], the LogP is reported as 1.60^[a].

Same assay, conditions: method [a]: pH 2.7; Table 3, formula (V)
With CC(C)(C)C(=O)Cc1ccc(Cl)nc1 [Example V-15] the LogP was 2.47^[a]. CC(C)(C)C(=O)Cc1ccncc1 [Example V-20] gave a LogP of 0.35. With CC(C)(C)C(=O)Cc1ncc(Cl)cc1Cl [Example V-13] the LogP was 3.33^[a]. For CC(C)C(C)(C)C(=O)Cc1ccncc1Cl [Example V-18], the LogP was 3.00^[a].

Same assay, conditions: method [a]: pH 2.7; Table 4, formula (XII)
For CC(C)(C)C1(Cc2ccnc(Cl)c2)CO1 (centres unmarked) [XII-22], the LogP was 3.06^[a]. For CC(C)C(C)(C)C1(Cc2cc(Cl)ncc2F)CO1 (centres unmarked) [XII-24], the LogP was 4.34^[a]. With CC(C)(C)C1(Cc2cnc3ccccc3c2)CO1 (centres unmarked) [XII-7] the LogP was 1.86^[a]. In the case of CC(C)(C)C1(Cc2ccncc2Cl)CO1 (centres unmarked) [XII-10], the LogP is reported as 2.80^[a].

Same assay, conditions: method [b]: pH 7.8; Table 3, formula (V)
CC(C)(C)C(=O)Cc1ccncc1 [Example V-20] showed a LogP of 1.75.

Same assay, conditions: pH 2.7
In the case of OC(Cc1ccnnc1Cl)(Cn1cncn1)C1(Cl)CC1 (racemic) [XXI-50], the LogP is reported as 1.31^[a]. In the case of CC(C)(Oc1ccc(F)cc1)C(O)(Cc1ccncc1Cl)Cn1cncn1 (centres unmarked) [XXI-96], the LogP is reported as 2.48^[a]. With OC(Cc1cc(Cl)nnc1Cl)(Cn1cncn1)C1(Cl)CC1 (racemic) [XXI-51] the LogP was 1.92^[a]. In the case of OC(Cc1cc(Cl)ncc1Cl)(Cn1cncn1)C1(Cl)CC1 (racemic) [XXI-63], the LogP is reported as 2.53^[a]. For CC(C)(C)C(O)(Cc1cccnc1Cl)Cn1cncn1 (centres unmarked) [XXI-10], the LogP was 1.94^[a]. For CC(C)(C)C(O)(Cc1cnccn1)Cn1cncn1 (racemic) [XXI-118], the LogP was 1.39^[a]. With OC(Cc1ccnc(Cl)c1)(Cn1cncn1)c1ccc(Cl)nc1 (racemic) [XXI-43] the LogP was 1.38^[a]. With CC(C)(C)C(O)(Cc1ccnc(Cl)c1F)Cn1cncn1 (racemic) [XXI-124] the LogP was 2.16^[a]. With OC(Cc1ccncc1Cl)(CC1CC1)Cn1cncn1 (racemic) [XXI-127] the LogP was 1.43^[a]. In the case of OC(CCc1ccc(Cl)cc1)(Cc1ccncc1Cl)Cn1cncn1 (centres unmarked) [XXI-74], the LogP is reported as 2.40^[a]. In the case of OC(Cc1ccncc1Cl)(Cn1cncn1)C1CCC1 (centres unmarked) [XXI-82], the LogP is reported as 1.46^[a]. In the case of OC(Cc1ccncc1C(F)(F)F)(Cn1cncn1)C1(Cl)CC1 (centres unmarked) [XXI-86], the LogP is reported as 2.08^[a]. With Cc1cccc(CC(O)(Cn2cncn2)C(C)(C)C)n1 (racemic) [XXI-120] the LogP was 0.63^[a]. For CC(C)(C)C(O)(Cc1nccnc1Cl)Cn1cncn1 (racemic) [XXI-115], the LogP was 2.01^[a]. With Cc1ncc(CC(O)(Cn2cncn2)C(C)(C)C)nc1Cl (racemic) [XXI-116] the LogP was 2.10^[a]. With CC(CF)(CF)C(O)(Cc1ccnc(Cl)c1F)Cn1cncn1 (racemic) [XXI-66] the LogP was 1.87^[a]. For CC(C)(F)C(O)(Cc1ccncc1Cl)Cn1cncn1 (centres unmarked) [XXI-81], the LogP was 1.20^[a]. For OC(Cc1cccc(Cl)c1)(Cc1ccnc(Cl)c1)Cn1cncn1 (racemic) [XXI-42], the LogP was 2.42^[a]. For OC(Cc1nc(Cl)ccc1Cl)(Cn1cncn1)C1(Cl)CC1 (racemic) [XXI-101], the LogP was 2.73^[a]. In the case of OC(Cc1cc(Cl)cnc1Cl)(Cn1cncn1)C1(Cl)CC1 (centres unmarked) [XXI-88], the LogP is reported as 2.53^[a]. With CCOC(C)(C)C(O)(Cc1ccncc1Cl)Cn1cncn1 (racemic) [XXI-129] the LogP was 1.90^[a]. For CC(C)(C)C(O)(Cc1ccnc2ccccc12)Cn1cncn1 (racemic) [XXI-107], the LogP was 1.17^[a]. In the case of CC(C)(C)C(O)(Cc1ccc(Cl)c(Cl)n1)Cn1ncnc1S (centres unmarked) [Example I-14], the LogP is reported as 3.00^[a]. With CCC(C)(C)C(O)(Cc1ccnc(Cl)c1)Cn1cncn1 (racemic) [XXI-111] the LogP was 2.27^[a]. In the case of CC(C)(C)C(O)(Cc1cnc2ccccc2c1)Cn1ncnc1S (centres unmarked) [Example I-5], the LogP is reported as 1.58^[a]. For CC(C)(C)C(O)(Cc1cc(Cl)ccn1)Cn1cncn1 (racemic) [XXI-119], the LogP was 1.87^[a]. In the case of OC(Cc1cc(Cl)ncc1F)(Cn1cncn1)C1(Cl)CC1 (racemic) [XXI-45], the LogP is reported as 2.06^[a].

Same assay, conditions: pH 7.8
In the case of CC(C)(Oc1ccc(F)cc1)C(O)(Cc1ccncc1Cl)Cn1cncn1 (centres unmarked) [XXI-96], the LogP is reported as 2.60^[b];. In the case of CC(C)(C)C(O)(Cc1cccnc1Cl)Cn1cncn1 (centres unmarked) [XXI-10], the LogP is reported as 1.90^[b];. For CCOC(C)(C)C(O)(Cc1ccncc1Cl)Cn1cncn1 (racemic) [XXI-129], the LogP was 2.04^[b];.
